Source: article PMC10199020 (Nature Communications, 2023)

Assays:
[1] = target: HiBit-IL23R and LgBit-IL12Rβ1 (Homo sapiens, UniProt Q5VWK5); details: 10 μM P630
Description: Finally, we utilised a NanoBiT BRET system in which a complemented luciferase with fragments bound to both receptor subunits (Fig. 3) can be used as a BRET donor to measure interactions with binary receptor complexes.
Data in b are mean ± SEM from three independent experiments. In each individual experiment, triplicate determinations were made for total binding and duplicate or triplicate determinations made for non-specific binding. Data in c are the mean values obtained in five independent experiments, each conducted with six replicates. […] Data in d are the mean ± SEM from five (NL-IL23R and NL-23R + IL12Rβ1) or three (HiBit-IL23R + LgBit-IL12Rβ1) independent experiments. Source data are provided as a Source Data file.

[2] = target: T1, NL-IL23R and IL12Rβ1 (IL-23 receptor) on HEK293T cells (Homo sapiens, UniProt P42701+Q5VWK5); assay: IL23-TMR NanoBRET competition assay; type: binding; details: 300 pM IL23-TMR
T1 construct: expressed in transfected cells; host or cells: HEK293T (ATCC CRL-3216), transient transfection
T1 sequence (Q5VWK5 24-629, other chains not shown): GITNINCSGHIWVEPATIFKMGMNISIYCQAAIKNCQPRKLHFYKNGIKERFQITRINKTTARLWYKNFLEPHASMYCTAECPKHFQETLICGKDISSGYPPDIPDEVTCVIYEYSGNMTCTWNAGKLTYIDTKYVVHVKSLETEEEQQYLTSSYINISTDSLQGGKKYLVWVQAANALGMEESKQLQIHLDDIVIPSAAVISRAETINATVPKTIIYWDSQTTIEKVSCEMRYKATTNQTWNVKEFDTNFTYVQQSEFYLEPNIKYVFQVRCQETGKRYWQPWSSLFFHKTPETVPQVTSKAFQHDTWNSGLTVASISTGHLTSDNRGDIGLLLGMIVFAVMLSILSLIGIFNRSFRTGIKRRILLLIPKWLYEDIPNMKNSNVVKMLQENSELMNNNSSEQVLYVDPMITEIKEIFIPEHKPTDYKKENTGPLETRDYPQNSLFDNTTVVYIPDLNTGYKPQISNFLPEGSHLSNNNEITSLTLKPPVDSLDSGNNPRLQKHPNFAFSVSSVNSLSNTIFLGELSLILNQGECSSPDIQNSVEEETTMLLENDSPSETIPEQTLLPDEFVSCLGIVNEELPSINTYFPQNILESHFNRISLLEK
Method: Schematic created with Biorender.com. IL23R is shown in orange, IL12Rβ1 in purple, IL23p19 in blue, IL12p40 in green and the presence of a TAMRA fluorophore by a pink star. […] In b and c, data are mean ± SEM from 5 independent experiments conducted in either duplicate or triplicate. Details on absolute number of data points included for each concentration are provided in the associated Source Data file.
(§1) Transient transfections for experiments outlined in Fig. 6 were conducted by seeding 100 μL of 2 × 10^5 cells/ml concentrated HEK293T cells into poly-D-lysine (PDL) coated white 96 well clear bottom assay microplates (Greiner) and incubating overnight. The following day transfection mixes were made up that contained a 4:1 ratio of IL23R to IL12Rβ1 constructs to a total concentration of 100 ng per well with a 0.3 μL per well of FuGENE HD transfection reagent (Promega) in OptiMEM (Gibco). These mixtures were incubated for 10 min before being added to the plate at 5 μL per well. The cells were then incubated overnight to allow expression. For all other experiments 2 mL containing 4 × 10^5 cells were seeded into 6 well plates and incubated 5 h before being transiently transfected with 100 μL per well of a transfection mix containing 2 μg of DNA and 6 μL of FuGENE HD. These cells were then incubated overnight before being re-suspended the following day and seeded into PDL coated white assay microplates at 100 μL containing 3 × 10^4 transfected cells. Cells were then incubated overnight before the experiment. Estimates of total expression levels for the different NL-constructs were made by comparing the luminescence levels achieved to that of a NanoLuciferase standard curve measured under the same conditions (Supplementary Fig. 1).
Media was removed from white 96-well microplates containing transfected cells and replaced with fluoroprobe in the presence or absence of antagonist in 50 μL Hanks Balanced Salt Solution (HBSS) with 1 mg/mL BSA (Merck).
(§2) Antagonist competition data were fit with the equation:4 Y=Bmin+Bmax−Bmin/1+10^(LogXC50−[A])C Where ‘Bmax’ is the maximum BRET signal, ‘Bmin’ is the minimum BRET signal, ‘LogXC50’ is the log of the 50% inhibiting concentration of antagonist, ‘[A]’ is the concentration of antagonist and ‘C’ is the Hill slope.

[3] = target: T1, NL-IL23R and IL12Rβ1 (IL-23 receptor) on HEK293T cells; assay: P630-TMR NanoBRET competition assay; type: binding; details: Fig. 5a
Method: as §1
Media was removed from white 96-well microplates containing transfected cells and replaced with fluoroprobe in the presence or absence of antagonist in 50 μL Hanks Balanced Salt Solution (HBSS) with 1 mg/mL BSA (Merck). After a 1-hour incubation at 37 °C without CO2, 5 μL of HBSS containing 77 μM furimizine was added to each well (final concentration 7 μM), the plate incubated for 5-minutes and the BRET signal measured using a PheraStar FS plate reader (BMG Labtech; data acquisition software version 5.41; MARS analysis software version 3.32) with a 450 ± 30 nm and >550 nm long pass filters.
as §2

HiBit-IL23R and LgBit-IL12Rβ1, sequence (Q5VWK5 24-629, other chains not shown): as above

COc1ccc(C[C@H](NC(=O)[C@H]2NC(=O)[C@H](CCC(N)=O)NC(=O)[C@H](Cc3c[nH]c4ccccc34)NC(=O)[C@H]([C@@H](C)O)NC(=O)[C@H](CC(N)=O)NC(=O)[C@@H](NC(C)=O)C(C)(C)SSC2(C)C)C(=O)N[C@@H](Cc2ccc3ccccc3c2)C(=O)NC(C)(C)C(=O)N[C@@H](CCC(=O)O)C(=O)N[C@@H](CC(N)=O)C(=O)N[C@@H](CC(N)=O)C(N)=O)cc1 [P630]
Effect on receptor dimerisation (NanoLuc complementation) [1]: did not affect receptor dimerisation | Inhibition of IL23-TMR binding (Mean) ([2]; [P630] -5.09151 logM): 84.0625 | Inhibition of IL23-TMR binding (Mean) ([2]; [P630] -5.56864 logM): 77.8076 | Inhibition of IL23-TMR binding (Mean) ([2]; [P630] -6.04576 logM): 62.3503 | Inhibition of IL23-TMR binding (Mean) ([2]; [P630] -6.52288 logM): 55.1992 | Inhibition of IL23-TMR binding (Mean) ([2]; [P630] -7 logM): 30.8209 | Inhibition of IL23-TMR binding (Mean) ([2]; [P630] -7.47712 logM): 11.8559 | Inhibition of IL23-TMR binding (Mean) ([2]; [P630] -7.95424 logM): 6.902 | Inhibition of IL23-TMR binding (Mean) ([2]; [P630] -8.90849 logM): 4.004 | Inhibition of IL23-TMR binding (Mean) ([2]; [P630] -9.38561 logM): -5.834 | Inhibition of IL23-TMR binding (Mean) ([2]; [P630] -9.86273 logM): 10.7231 | Displacement of 75 nM P630-TMR (Mean) ([3]; [P630] -4.69897 logM): 100.016 | Displacement of 75 nM P630-TMR (Mean) ([3]; [P630] -5.69897 logM): 98.9078 | Displacement of 75 nM P630-TMR (Mean) ([3]; [P630] -6.69897 logM): 89.0568 | Displacement of 75 nM P630-TMR (Mean) ([3]; [P630] -7.69897 logM): 51.2574 | Displacement of 75 nM P630-TMR (Mean) ([3]; [P630] -8.69897 logM): 11.835 | Displacement of 75 nM P630-TMR (Mean) ([3]; [P630] -9.69897 logM): -0.3727 | Displacement of 75 nM P630-TMR (Mean) ([3]; [P630] -10.699 logM): 3.757 | Displacement of 75 nM P630-TMR (Mean) ([3]; [P630] -11.699 logM): 1.217
